# Source: PMC5984089, “FBXW7 regulates DISC1 stability via the ubiquitin-proteosome system” (Molecular Psychiatry, 2017)
# Residues, ends and D or L forms follow the SMILES beside them. *: point of attachment. Cbz = O=C(OCc1ccccc1)*
# Key:
# Type in all cases: cell-based, human
# [1] = tested on: HA-DISC1; experiment: DISC1 ubiquitination in transfected HEK293 cells, immunoprecipitation
# Method: (§1) Briefly, detergent-soluble proteins were isolated from cells by disruption in lysis buffer 20 mM Tris-HCl (pH 7.5), 150 mM NaCl, 1 mM Na2EDTA, 1 mM EGTA, 1% triton, 2.5 mM sodium pyrophosphate, 1 mM β-glycerophosphate, 1 mM Na3VO4, 1 μg ml^–1 leupeptin, 10 mM DTT with Roche protease inhibitor, phosSTOP (Roche, 04906837001). Detergent-insoluble proteins were removed by centrifugation at 10 000 g for 10 min, and the soluble fraction was retained. Cell lysates were adjusted to equal protein amount (1 μg μl^–1) using cell lysis buffer. Cell lysates normalized for the protein concentration were incubated with mouse IgG (Millipore, 12487) Protein A agarose beads for 2 h at 4 °C. […] The complexes were analyzed on SDS PAGE. […]
# Antibodies used in this study are detailed in Supplementary Table 1. […] Chemiluminescent images of immune detected bands were recorded on blue-light sensitive autoradiography X-ray films, which were then developed using the Kodak X-Omat Model 2000 processor and band intensities were quantified using image J. Alternatively blots were visualized using the Licor Odyssey system and quantified using LICOR Image Studio Lite (Licor Biosciences).
# Figure 1 DISC1 turnover is regulated by the ubiquitin-proteosome system. […] HA-DISC1 levels were evaluated using densitometry (bar-chart, n=3). ‘Nt’ indicates no treatment control. […]
# [2] = tested on: DISC1, HEK293 cells; experiment: Endogenous DISC1 protein level in HEK293 cells, western blot; details: MG132 10–60 μM, 1 h, Figure 1b
# Method: (§2) HEK293 cells were sourced from ATCC (CRL-1573) and cultured as described in the manufacturer’s protocol. DMEM (SIGMA) supplemented with 10% fetal bovine serum, 2 mM L-glutamine, […] penicillin-streptomycin at 37 °C in a humidified atmosphere of 5% CO2. The cells were passaged at about 80% confluency. Cells were transfected with plasmid DNA using polyfect transfection reagent (Qiagen) according to the manufacturer’s instructions. HEK293 cells were treated with the pharmacological agents cycloheximide (C7698) and MG132 (M7449) (Sigma-Aldrich) or DISC1 disruptor peptides (custom synthesized by Severn Biotech) as described in the text.
# as §1
# [3] = tested on: HA-DISC1, HEK293 cells; experiment: HA-DISC1 protein level in transfected HEK293 cells; details: MG132 10 μM, Figure 1c, n=3
# Method: as §2, §1
structure (smiles),measurement,setting,value
CC(C)C[C@@H](C=O)NC(=O)[C@H](CC(C)C)NC(=O)[C@H](CC(C)C)NC(=O)OCc1ccccc1 [MG132] (Cbz-Leu-Leu-Leu-aldehyde),co-purification of HA-DISC1 with ubiquitin,"[1]; MG132 10 μM, 30 min exposure, Figure 1c",HA-DISC1 immunoprecipitates co-purify with ubiquitin after a 30 min exposure to MG132
same,"DISC1 ubiquitination with over-expressed DISC1 or ubiquitin, further effect of MG132","[1]; MG132 10 µM, Supplementary Figure 1a",not enhanced further by MG132
same,endogenous DISC1 level after MG132,[2],elevated
same,HA-DISC1 protein expression after MG132,[3],transiently increased
